Experimental data reported in ChEMBL document CHEMBL1201862, “PubChem BioAssay data set” (2004).
The source made the active and inactive calls.

Key:
[1] = molecular target: T1, COUP transcription factor 2 (Homo sapiens, UniProt P24468); test: Luminescence-based cell-based high throughput dose response assay to identify inhibitors of COUP-TFII (NR2F2).; type: functional;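 note: HEK293 cells transiently cotransfected with COUP-TFII expression vector and reporter; luciferase reporter luminescence driven by COUP-TFII from the pX2-168 reporter plasmid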
T1 sequence (P24468 whole entry): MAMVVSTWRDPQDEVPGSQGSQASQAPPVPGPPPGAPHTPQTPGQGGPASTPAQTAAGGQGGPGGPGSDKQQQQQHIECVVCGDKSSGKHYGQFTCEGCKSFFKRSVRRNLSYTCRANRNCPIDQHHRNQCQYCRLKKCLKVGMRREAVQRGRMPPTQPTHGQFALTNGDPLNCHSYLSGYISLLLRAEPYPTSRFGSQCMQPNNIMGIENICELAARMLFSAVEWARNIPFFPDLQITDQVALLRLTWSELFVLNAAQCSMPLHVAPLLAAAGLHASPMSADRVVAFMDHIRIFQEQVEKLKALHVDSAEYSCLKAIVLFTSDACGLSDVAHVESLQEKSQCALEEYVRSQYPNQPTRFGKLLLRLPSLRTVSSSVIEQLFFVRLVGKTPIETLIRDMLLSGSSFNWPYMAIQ

[2] = HGIII-sPLA2 enzyme inhibition potency – biochemical, QFRET, IC50, dose response (AID 743457);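 note: green fluorescence rise as the enzyme cleaves BODIPY PC-A2 in liposomes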
[3] = cells; type: functional, cell-based
[4] = cells; type: functional, cell-based; remark: listed apart in the source
[5] = molecular target: T2, Trace amine-associated receptor 1 (Homo sapiens, UniProt Q96RJ0); test: Fluorescence-based cell-based high throughput dose response assay to identify agonists of the human trace amine associated receptor 1 (TAAR1).; type: functional
T2 sequence (Q96RJ0 whole entry): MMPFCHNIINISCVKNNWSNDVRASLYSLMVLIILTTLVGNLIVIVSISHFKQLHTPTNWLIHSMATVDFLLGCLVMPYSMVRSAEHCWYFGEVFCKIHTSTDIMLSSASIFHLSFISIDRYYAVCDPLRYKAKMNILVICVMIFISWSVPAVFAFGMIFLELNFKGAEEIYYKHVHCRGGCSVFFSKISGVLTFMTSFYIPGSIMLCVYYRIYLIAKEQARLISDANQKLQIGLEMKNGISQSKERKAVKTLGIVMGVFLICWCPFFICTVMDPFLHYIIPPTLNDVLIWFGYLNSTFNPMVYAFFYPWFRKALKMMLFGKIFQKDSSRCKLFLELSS

[6] = molecular target: T2, Trace amine-associated receptor 1; test: Counterscreen for agonists of the human trace amine associated receptor 1 (hTAAR1): Fluorescence-based cell-based high throughput dose response assay to identify hTAAR1 agonist that also desensitize TAAR1 receptor response.; type: functional
[7] = molecular target: T3, RNA-binding protein pos-1 (Caenorhabditis elegans, UniProt G5EF15); test: disruptors of C. elegans POS-1 RNA interaction – biochemical, fluorescence polarization, dose response (AID 1964);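 note: purified POS-1 fused to maltose binding protein made in E. coli; potency of compounds blocking POS-1 binding to fluorescent RNA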
T3 sequence (G5EF15 whole entry): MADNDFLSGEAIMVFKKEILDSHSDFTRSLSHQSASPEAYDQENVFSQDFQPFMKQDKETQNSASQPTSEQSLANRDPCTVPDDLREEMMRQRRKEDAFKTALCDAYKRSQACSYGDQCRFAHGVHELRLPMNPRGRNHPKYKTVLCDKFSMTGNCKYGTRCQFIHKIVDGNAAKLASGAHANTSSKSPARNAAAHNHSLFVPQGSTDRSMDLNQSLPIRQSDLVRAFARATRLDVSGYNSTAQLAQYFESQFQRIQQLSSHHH

[8] = molecular target: Beta-lactamase (Salmonella choleraesuis (strain SC-B67), UniProt Q5J463)
[9] = molecular target: T4, Zinc finger protein mex-5 (Caenorhabditis elegans, UniProt Q9XUB2); test: potency of MEX-5 RNA-binding blockers – biochemical, C. elegans, fluorescence polarization, dose response (AID 1960)
T4 sequence (Q9XUB2 whole entry): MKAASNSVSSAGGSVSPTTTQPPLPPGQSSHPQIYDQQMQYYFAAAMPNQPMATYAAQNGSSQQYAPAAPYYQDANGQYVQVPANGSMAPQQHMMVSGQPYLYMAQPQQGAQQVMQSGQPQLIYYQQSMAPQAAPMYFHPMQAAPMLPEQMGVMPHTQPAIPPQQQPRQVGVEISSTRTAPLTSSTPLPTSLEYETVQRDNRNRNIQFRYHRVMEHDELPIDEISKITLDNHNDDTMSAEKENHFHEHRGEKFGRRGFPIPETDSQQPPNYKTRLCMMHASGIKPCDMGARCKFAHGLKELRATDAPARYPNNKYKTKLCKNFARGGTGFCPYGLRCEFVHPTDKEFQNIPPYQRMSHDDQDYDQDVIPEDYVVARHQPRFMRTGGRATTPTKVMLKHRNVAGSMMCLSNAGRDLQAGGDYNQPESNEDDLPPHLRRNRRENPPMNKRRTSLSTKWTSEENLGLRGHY

[10] = molecular target: Beta-lactamase (Pseudomonas aeruginosa, UniProt Q79MP6);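 note: biochemical dose-response test of metallo-beta-lactamase enzyme inhibition, read out by epi-absorbance; purified recombinant IMP-1 metallo-beta-lactamase with nitrocefin as substrate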
[11] = molecular target: Voltage-dependent T-type calcium channel subunit alpha-1H (Homo sapiens, UniProt O95180); type: functional;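 note: channel activity triggered by adding a high calcium stimulation buffer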
[12] = blockers of HIV-1 envelope-mediated cell-cell fusion – cherry-pick, dose response (AID 652057); type: functional, cell-based
[13] = blockers of HIV-1 ZM109 envelope-driven cell-cell fusion – HeLa effector, CEM target cells, luciferase, cherry-pick, dose response (AID 652058); type: functional, cell-based;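 note: luciferase signal from HIV-1 Env mediated cell-cell fusion of effector and target cells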
[14] = viability loss in CEM21 cells – cell-based, CellTiter-Glo luminescence, cherry-picked, cytotoxicity control for viral fusion inhibitor project, dose response (AID 652042); type: functional;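 note: potency for signal decrease meaning cytotoxicity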
[15] = off-target signal loss in HeLa-CEM21 co-culture – HeLa F-luc CTL cells, cherry-picked, counter-screen for HIV-1 Env fusion inhibitor project, dose response (AID 652040); type: functional, cell-based;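 note: potency for signal decrease marking cytotoxic or nonspecific inhibition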
[16] = HIV-1 AD8 envelope cell-cell fusion blockers – cherry-pick, dose response (AID 652062); type: functional, cell-based;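 note: luciferase signal from cell-cell fusion driven by HIV-1 clade B AD8 Env; potency is for inhibitors of fusion seen as a drop in luminescence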
[17] = molecular target: T5, Low molecular weight phosphotyrosine protein phosphatase (Homo sapiens, UniProt P24666); type: functional; conditions: read-out: IC50_Mean;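 note: Dose-response confirmation assay measuring inhibition of LMPTP enzyme activity by fluorescence intensity read-out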
T5 sequence (P24666 whole entry): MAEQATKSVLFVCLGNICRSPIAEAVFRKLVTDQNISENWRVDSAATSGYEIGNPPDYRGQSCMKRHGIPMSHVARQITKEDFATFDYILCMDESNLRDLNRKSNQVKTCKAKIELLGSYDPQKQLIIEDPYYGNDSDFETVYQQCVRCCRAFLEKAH

[18] = Luminescence Cell-Based Dose Retest to Confirm Inhibitors of Cancer Stem Cells. [Related pubchem assays (depositor defined):AID2717, AID2721]; type: functional; conditions: Homo sapiens
[19] = viability loss in HeLa cells – cytotoxicity control for MgcRacGAP inhibitor project, dose response (AID 624300); type: functional
[20] = molecular target: T6, Rac GTPase-activating protein 1 (Homo sapiens, UniProt Q9H0H5); test: blockers of MgcRacGAP-driven Rac1 GTP hydrolysis – biochemical, ADP Hunter fluorescence, primary and confirmatory, confirmation (AID 624330); type: functional
T6 sequence (Q9H0H5 whole entry): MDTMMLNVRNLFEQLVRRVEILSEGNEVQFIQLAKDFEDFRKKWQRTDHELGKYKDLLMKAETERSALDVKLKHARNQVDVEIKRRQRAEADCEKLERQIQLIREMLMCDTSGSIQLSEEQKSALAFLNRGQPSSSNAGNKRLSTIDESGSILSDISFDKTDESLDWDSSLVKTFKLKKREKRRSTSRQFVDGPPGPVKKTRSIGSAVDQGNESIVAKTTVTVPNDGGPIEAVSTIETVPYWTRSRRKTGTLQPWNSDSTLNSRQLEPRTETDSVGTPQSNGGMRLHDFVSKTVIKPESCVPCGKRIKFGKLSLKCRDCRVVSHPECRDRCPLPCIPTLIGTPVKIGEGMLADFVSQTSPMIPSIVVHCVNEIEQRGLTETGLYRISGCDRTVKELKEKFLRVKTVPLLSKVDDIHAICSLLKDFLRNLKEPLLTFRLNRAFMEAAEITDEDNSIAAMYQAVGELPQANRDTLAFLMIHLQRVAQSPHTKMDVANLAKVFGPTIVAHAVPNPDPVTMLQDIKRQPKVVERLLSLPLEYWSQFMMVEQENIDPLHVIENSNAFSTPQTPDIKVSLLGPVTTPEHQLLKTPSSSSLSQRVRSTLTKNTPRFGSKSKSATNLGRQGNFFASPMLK

[21] = blockade of melanocortin 4 receptor signaling – cell-based, plate reader, cherry pick, counter-screen for LGR2 antagonist project, dose response (AID 743444); type: functional;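 note: transfected HEK 293 cells stimulated with alpha-MSH peptide; potency of inhibitors of the alpha-MSH evoked signal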
[22] = viability loss in HEK293 cells – cell-based, plate reader, cherry-picked samples, cytotoxicity control, dose response (AID 743446); type: functional
[23] = blockers of bursicon-stimulated LGR2 cAMP reporter – cell-based, HEK293, CRE-luciferase reporter, cherry pick, set 2, dose response (AID 743343); type: functional;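 note: transfected cells were stimulated with diluted bursicon conditioned medium after compound addition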
[24] = toxicity toward HepG2 liver cells – cell-based, plate reader, cherry-pick, antagonist series, cytotoxicity control, dose response (AID 743416); type: functional
[25] = A549 cell cytotoxicity, dose response, cytotoxicity control, plate reader, cherry-pick, antagonist series (AID 743412); type: functional, cell-based
[26] = cells
[27] = molecular target: Major prion protein (Homo sapiens, UniProt P04156); type: functional, cell-based
[28] = test system: Vero; test: cells; type: functional; conditions: Chlorocebus sabaeus
[29] = molecular target: Glucose-6-phosphate 1-dehydrogenase (Homo sapiens, UniProt P11413); test: inhibition of Homo sapiens G6PD, dose series – biochemical, fluorescence, selectivity assay for P. falciparum G6PD inhibitor project, dose response (AID 504792); type: functional
[30] = molecular target: Albumin (Bos taurus, UniProt P02769); test: Counterscreen for inhibitors of T-cell receptor (TCR)-CD3 interaction: Fluorescence-based biochemical high throughput dose response assay to identify inhibitors of T-cell receptor (TCR)-CD3 interaction using a TAMRA-labeled BSA probe.; type: functional

CC(=O)N[C@@H](C)c1nc2ccccc2n1CCCN1CCN(c2nc(-c3ccc(C)cc3)cs2)CC1
IC50 [1]: 6.84 µM (active)

O=C(CNc1cccc(Cl)c1)NNC(=S)NCc1ccccc1
IC50 [2]: > 122 µM (inactive)

Clc1ccc(CCNCc2ccncc2)c(Cl)c1
EC50 [3]: > 29.9 µM (inactive) | IC50 [4]: > 29.9 µM (inactive) | EC50 [5]: 2.01 µM (active) | IC50 [6]: 6.77 µM (active)

CCCCCCn1c(=O)[nH]c2nc3cc(N)ccc3nc2c1=O
EC50 [7]: > 300 µM (inconclusive) | IC50 [8]: 9.7 µM (active) | EC50 [9]: > 300 µM (inconclusive) | IC50 [10]: > 59.6 µM (inactive)

CCOc1ccc([N+](=O)[O-])cc1CNCCc1ccccc1
EC50 [3]: > 29.9 µM (inactive) | IC50 [4]: > 29.9 µM (inactive) | EC50 [5]: 0.337 µM (active) | IC50 [6]: 4.18 µM (active)

Clc1ccc(-n2ncc3c(NCCN4CCOCC4)ncnc32)cc1
IC50 [1]: 35.7 µM (inactive)

Clc1ccc(C(c2nnnn2CCc2ccccc2)N2CCSCC2)cc1 (stereo unspecified)
EC50 [11]: 8.87 µM (active) | AC50 [12]: 2 µM (active) | AC50 [13]: 7.63 µM (active) | AC50 [14]: 62.2 µM (active) | AC50 [15]: 4.45 µM (active) | AC50 [16]: 1.14 µM (active)

CCn1c(=S)sc2c(=O)n(CC(=O)Nc3ccccc3C(F)(F)F)c(C)nc21
IC50 [17]: 16.2 µM (active) | IC50 [8]: > 59.6 µM (inactive) | IC50 [10]: 22.7 µM (inactive)

COc1ccc(Cl)cc1C(=O)NN=C(S)NC1CCCC1
IC50 [2]: > 122 µM (inactive)

CC(C)(C)c1cc(Cl)ccc1OCCOCCN1CCCC1
AC50 [18]: 6.93 µM (active) | CC50 [19]: 67.4 µM (active) | IC50 [20]: 104 µM (active)

O=C(Nc1ccc(N2CCN(C(=O)c3ccccc3)CC2)c(Cl)c1)c1ccc(Br)o1
AC50 [21]: 14.9 µM (active) | AC50 [22]: 21.5 µM (active) | AC50 [23]: 16.6 µM (active) | AC50 [24]: 35 µM (active) | AC50 [25]: 34.9 µM (active)

O=C(O)c1ccccc1SCc1csc(-c2ccccc2)n1
IC50 [26]: > 138 µM (inactive) | IC50 [27]: 6.49 µM (active)

CN(C)c1nc(=NCc2cccs2)ss1
CC50 [28]: 19 µM (active) | CC50 [19]: 100 µM (active) | IC50 [20]: 134 µM (active) | IC50 [29]: > 80 µM (inactive)

CCOc1ccc(C(=O)C2=C(O)C(=O)N(c3ccccn3)C2c2ccccc2F)c(C)c1 (stereo unspecified)
IC50 [26]: > 138 µM (inactive) | IC50 [27]: 5.58 µM (active)

Cc1ccc(S(=O)(=O)Nc2ccc3c(c2)C(=O)N([C@H](C)CO)C[C@@H](C)[C@@H](CN(C)Cc2ccc(-c4ccccc4)cc2)O3)cc1
AC50 [12]: 18 µM (active) | AC50 [13]: 16.6 µM (active) | AC50 [14]: 21.8 µM (active) | AC50 [16]: 17.4 µM (active)

N#C[C@H]1[C@@H](c2ccc(-c3ccccc3)cc2)[C@@H](CO)N1S(=O)(=O)Cc1ccccc1
AC50 [12]: 1.93 µM (active) | AC50 [14]: 41.5 µM (active) | AC50 [16]: 4.94 µM (active)

COc1ccccc1CCn1cnc(-c2ccccc2OC)c1C(C)C
AC50 [21]: 29.4 µM (active) | AC50 [22]: > 52 µM (inactive) | EC50 [3]: > 29.9 µM (inactive) | AC50 [24]: 29.8 µM (active) | IC50 [4]: 11.8 µM (inactive) | EC50 [5]: 5.14 µM (active) | IC50 [6]: 3.82 µM (active)

O=C(NNC(=O)c1c(O)c2ccccc2[nH]c1=O)c1ccccc1
IC50 [30]: > 94.1 µM (inactive)
